Source: ChEMBL document CHEMBL3045300, “Synthesis of photolabile lac-acetogenin for photoaffinity labeling of mitochondrial complex I” (J Pestic Sci, 2006)

Tests used:
[1] = species on record: Bos taurus; experiment: Inhibition of Bos taurus (bovine) heart submitochondrial NADH complex 1 at 12 nM by NADH oxidase assay
[2] = Inhibition of Bos taurus (bovine) heart submitochondrial NADH complex 1 by NADH oxidase assay

Row | Structure (SMILES) | inhibition [1] | IC50 [2]
1 | O=C1N[C@H]2[C@H](CS[C@H]2CCCCC(=O)OCCCCCCC[C@@H](O)[C@H]2CC[C@H]([C@H]3CC[C@H]([C@H](O)CCCCCCOc4ccc(C5(C(F)(F)F)N=N5)cc4)O3)O2)N1 | > 95% | 3.9 nM
2 | CCCCCCCCCC[C@@H](O)[C@H]1CC[C@H]([C@H]2CC[C@H]([C@H](O)CCCCCCCCCC)O2)O1 [dleta-lac-Acetogenin] | – | 1.8 nM
